# Measurements as given in ChEMBL document CHEMBL1148131, “Efficacy of scopadulcic acid A against Plasmodium falciparum in vitro” (J Nat Prod, 2002).
# Experiments:
# Format in all cases: functional, organism-based
# Plasmodium falciparum [1] = test: Antimalarial activity against Plasmodium falciparum W2 after 24 hrs by [3H]hypoxanthine uptake
# Plasmodium falciparum [2] = test: Antimalarial activity against Plasmodium falciparum D6 after 24 hrs by [3H]hypoxanthine uptake
# Plasmodium falciparum [3] = test: Antimalarial activity against multidrug-resistant Plasmodium falciparum TM91C235 after 24 hrs by [3H]hypoxanthine uptake
smiles,measurement,setting,value
C[C@]12CC[C@]3(C1)[C@H](CC2=O)C[C@@H](OC(=O)c1ccccc1)[C@H]1[C@@](CO)(C(=O)O)CCC[C@@]13C [SCOPADULCIC ACID A],IC50,Plasmodium falciparum [1],19 µM
same,IC50,Plasmodium falciparum [2],27 µM
same,IC50,Plasmodium falciparum [3],23 µM
OC(c1cc(C(F)(F)F)nc2c(C(F)(F)F)cccc12)C1CCCCN1 (centres undefined) [MEFLOQUINE],IC50,Plasmodium falciparum [3],0.059 µM
